Key:
[1] = excess molar enthalpy (molar enthalpy of mixing); xn = mol fraction of the nth substance listed; settings: 101.32 kPa, Liquid
[2] = xn = mol fraction of the nth substance listed; settings: 101.32 kPa, Liquid

CCOC=O [ethyl methanoate] + CCCCCC
Settings | excess molar enthalpy [kJ/mol] | mass density [kg/m3]
[1], 291.15 K, x1 = 0.092 | 0.449 | –
[1], 291.15 K, x1 = 0.209 | 0.956 | –
[1], 291.15 K, x1 = 0.3175 | 1.27 | –
[1], 291.15 K, x1 = 0.4075 | 1.45 | –
[1], 291.15 K, x1 = 0.4677 | 1.52 | –
[1], 291.15 K, x1 = 0.5161 | 1.54 | –
[1], 291.15 K, x1 = 0.5681 | 1.53 | –
[1], 291.15 K, x1 = 0.6185 | 1.44 | –
[1], 291.15 K, x1 = 0.6714 | 1.34 | –
[1], 291.15 K, x1 = 0.7272 | 1.2 | –
[1], 291.15 K, x1 = 0.7841 | 1.02 | –
[1], 291.15 K, x1 = 0.843 | 0.787 | –
[1], 291.15 K, x1 = 0.9022 | 0.531 | –
[1], 291.15 K, x1 = 0.9514 | 0.305 | –
[1], 318.15 K, x1 = 0.1003 | 0.622 | –
[1], 318.15 K, x1 = 0.1895 | 1.02 | –
[1], 318.15 K, x1 = 0.2842 | 1.35 | –
[1], 318.15 K, x1 = 0.3713 | 1.53 | –
[1], 318.15 K, x1 = 0.4495 | 1.63 | –
[1], 318.15 K, x1 = 0.5137 | 1.65 | –
[1], 318.15 K, x1 = 0.5599 | 1.62 | –
[1], 318.15 K, x1 = 0.5991 | 1.57 | –
[1], 318.15 K, x1 = 0.6795 | 1.41 | –
[1], 318.15 K, x1 = 0.7593 | 1.18 | –
[1], 318.15 K, x1 = 0.8299 | 0.902 | –
[1], 318.15 K, x1 = 0.8814 | 0.647 | –
[1], 318.15 K, x1 = 0.9215 | 0.44 | –
[1], 318.15 K, x1 = 0.966 | 0.213 | –
[2], 291.15 K, x1 = 0.0495 | – | 667.8
[2], 291.15 K, x1 = 0.1025 | – | 675.4
[2], 291.15 K, x1 = 0.1497 | – | 682.8
[2], 291.15 K, x1 = 0.2049 | – | 692.1
[2], 291.15 K, x1 = 0.2531 | – | 700.4
[2], 291.15 K, x1 = 0.3068 | – | 710.6
[2], 291.15 K, x1 = 0.3937 | – | 728.2
[2], 291.15 K, x1 = 0.5016 | – | 753
[2], 291.15 K, x1 = 0.6039 | – | 780
[2], 291.15 K, x1 = 0.6996 | – | 808.2
[2], 291.15 K, x1 = 0.7504 | – | 824.6
[2], 291.15 K, x1 = 0.8029 | – | 842.4
[2], 291.15 K, x1 = 0.9016 | – | 880.3
[2], 291.15 K, x1 = 0.9065 | – | 882.4
[2], 291.15 K, x1 = 0.9522 | – | 901.9
[2], 291.15 K, x1 = 0.958 | – | 905
[2], 291.15 K, x1 = 1 | – | 924.7
[2], 298.15 K, x1 = 0.0777 | – | 665.63
[2], 298.15 K, x1 = 0.1291 | – | 673.25
[2], 298.15 K, x1 = 0.1715 | – | 679.95
[2], 298.15 K, x1 = 0.2501 | – | 693.44
[2], 298.15 K, x1 = 0.327 | – | 707.73
[2], 298.15 K, x1 = 0.4765 | – | 739.84
[2], 298.15 K, x1 = 0.5354 | – | 754.13
[2], 298.15 K, x1 = 0.5955 | – | 769.95
[2], 298.15 K, x1 = 0.6441 | – | 783.83
[2], 298.15 K, x1 = 0.6993 | – | 800.39
[2], 298.15 K, x1 = 0.7956 | – | 832.38
[2], 298.15 K, x1 = 0.884 | – | 865.42
[2], 298.15 K, x1 = 0.9643 | – | 898.98
[2], 298.15 K, x1 = 1 | – | 915.16
[2], 308.15 K, x1 = 0.0485 | – | 651.9
[2], 308.15 K, x1 = 0.1103 | – | 660.5
[2], 308.15 K, x1 = 0.1539 | – | 667.2
[2], 308.15 K, x1 = 0.2548 | – | 683.8
[2], 308.15 K, x1 = 0.3998 | – | 711.6
[2], 308.15 K, x1 = 0.4915 | – | 731.9
[2], 308.15 K, x1 = 0.5935 | – | 757.8
[2], 308.15 K, x1 = 0.6998 | – | 788
[2], 308.15 K, x1 = 0.7971 | – | 819.9
[2], 308.15 K, x1 = 0.9063 | – | 860.7
[2], 308.15 K, x1 = 0.9488 | – | 878.7
[2], 308.15 K, x1 = 1 | – | 902.07
[2], 318.15 K, x1 = 0.0476 | – | 642.18
[2], 318.15 K, x1 = 0.0875 | – | 647.84
[2], 318.15 K, x1 = 0.1044 | – | 649.54
[2], 318.15 K, x1 = 0.1471 | – | 655.88
[2], 318.15 K, x1 = 0.2199 | – | 667.46
[2], 318.15 K, x1 = 0.3041 | – | 681.93
[2], 318.15 K, x1 = 0.4061 | – | 701.97
[2], 318.15 K, x1 = 0.5293 | – | 729.7
[2], 318.15 K, x1 = 0.5869 | – | 744.1
[2], 318.15 K, x1 = 0.6984 | – | 775.52
[2], 318.15 K, x1 = 0.7476 | – | 790.78
[2], 318.15 K, x1 = 0.7932 | – | 805.56
[2], 318.15 K, x1 = 0.8873 | – | 840.19
[2], 318.15 K, x1 = 0.9692 | – | 874.21
[2], 318.15 K, x1 = 1 | – | 888.42

Source: the NIST ThermoML archive (doi:10.1021/je060355j)
